The source made the active and inactive calls. No cut-off for these calls is given here.
Columns and labels:
[1] = Cmax in Sprague-Dawley rat at 10 mg/kg, iv measured for 2880 mins by LC-MS/MS analysis; format: ADME, organism-based; conditions: in vivo
[2] = Toxicity in ICR mouse model of Amyloid beta(1 to 42)-induced cognitive impairment assessed as change in body appearance at 10 mg/kg, IG for 12 days; format: organism-based; conditions: in vivo, po, 288 h, time 12 day
Mus musculus [3] = test: Anti-inflammatory activity in ICR mouse model assessed as reduction in serum IL-1beta level at 10 mg/kg, IG pretreated for 10 days followed by LPS treatment for 4 days by ELISA; format: functional, organism-based; conditions: time 14.0 day
[4] = Ratio of Cmax in brain to plasma of ICR mouse at 10 mg/kg, IG measured at 10 to 240 mins by LC-MS/MS analysis; format: ADME, organism-based; conditions: po, time 10-240 min
Mus musculus [5] = test: Anti-inflammatory activity in ICR mouse model assessed as reversal of LPS-induced body weight loss at 10 mg/kg, IG pretreated for 10 days followed by LPS treatment for 4 days; format: functional, organism-based; conditions: time 14.0 day
PC-12 = test: Neuroprotective activity against H2O2-induced neuronal damage in rat PC12 cells assessed as increase in cell viability pretreated for 1 hr followed by H2O2 addition measured after 24 hrs by MTT assay; format: functional, cell-based; conditions: dose <= 20.0 µM, time 25.0 hrs
[6] = AUC (0 to t) in brain of ICR mouse at 10 mg/kg, IG measured at 10 to 240 mins by LC-MS/MS analysis; format: ADME, organism-based; conditions: po, time 10-240 min
[7] = MRT (infinity) in Sprague-Dawley rat at 10 mg/kg, iv measured for 2880 mins by LC-MS/MS analysis; format: ADME, organism-based; conditions: in vivo, 48 h
[8] = MRT (infinity) in Sprague-Dawley rat at 10 mg/kg, IG measured for 2880 mins by LC-MS/MS analysis; format: ADME, organism-based; conditions: in vivo, po
[9] = Oral bioavailability in Sprague-Dawley rat at 10 mg/kg, IG or 10 mg/kg, iv measured for 2880 mins by LC-MS/MS analysis; format: ADME, organism-based; conditions: in vivo
[10] = Tmax in Sprague-Dawley rat at 10 mg/kg, iv measured for 2880 mins by LC-MS/MS analysis; format: ADME, organism-based; conditions: in vivo
[11] = Tmax in brain of ICR mouse at 10 mg/kg, IG measured at 10 to 240 mins by LC-MS/MS analysis; format: ADME, organism-based; conditions: po, time 10-240 min
[12] = Tmax in plasma of ICR mouse at 10 mg/kg, IG measured at 10 to 240 mins by LC-MS/MS analysis; format: ADME, organism-based; conditions: in vivo, po, time 10-240 min
L02 = test: Cytotoxicity against human L02 cells by MTT assay; format: toxicity, cell-based
[13] = Neurotoxicity against mouse BV-2 cells by MTT assay; format: toxicity, cell-based
[14] = Cmax in brain of ICR mouse at 10 mg/kg, IG measured at 10 to 240 mins by LC-MS/MS analysis; format: ADME, organism-based; conditions: po, time 10-240 min
Mus musculus [15] = test: Anti-inflammatory activity in ICR mouse model assessed as reduction in brain IL-1beta level at 10 mg/kg, IG pretreated for 10 days followed by LPS treatment for 4 days by ELISA; format: functional, organism-based; conditions: time 14.0 day
Mus musculus [16] = test: Improvement of learning ability in ICR mouse model of Amyloid beta(1 to 42)-induced cognitive impairment at 10 mg/kg, IG for 12 days by Moris water maze test; format: functional, organism-based; conditions: time 12.0 day
BV-2 = test: Anti-inflammatory activity against mouse BV-2 cells assessed as decrease in LPS-induced IL-1beta level at 5 uM preincubated for 1 hr followed by LPS addition and incubated overnight by immunofluorescence based analysis; format: functional, cell-based
[17] = Metabolic stability in human liver microsomes assessed as half life at 2 uM incubated for 60 mins by LC-MS/MS analysis; format: ADME, Microsome
[18] = Cmax in Sprague-Dawley rat at 10 mg/kg, IG measured for 2880 mins by LC-MS/MS analysis; format: ADME, organism-based; conditions: in vivo, po

For `CCCc1ccc(C(=O)Nc2cnc3ccccc3c2N2CCN(Cc3ccccc3)CC2)cc1`, the Cmax [1] was 7120 ng/mL, the Activity [2] was “Non-Toxic” and the Activity (Mus musculus [3]) was “Active”. The Kp [4] was 2.33, the Activity (Mus musculus [5]) was “Active” and the Activity (PC-12) was “Dose-Dependent Effect”. The AUC(0-t) [6] was 38300 ng·h/mL, the MRT [7] was 987 min and the MRT inf [8] was 1070 min. The bioavailability [9] was 92.3%, the Tmax [10] was 1 min and the Tmax [11] was 22 min. For the same molecule, the Tmax [12] was 18 min, the Activity (L02) was “Non-Toxic” and the Activity [13] was “Not Active”. For the same molecule, the Cmax [14] was 554 ng/mL, the Activity (Mus musculus [15]) was “Active” and the Activity (Mus musculus [16]) was “Active”. For the same molecule, the Activity (BV-2) was “Active”, the half-life at 2 µM [17] was 45.7 min and the Cmax [18] was 1380 ng/mL.
